Measured values published in ChEMBL document CHEMBL1201862, “PubChem BioAssay data set” (2004).
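Grown in 96-well plates, cells were treated for 48 hours with each compound at five concentrations. Insufficient inhibition: endpoint recorded as highest concentration tested. GI50: concentration for 50% inhibition of growth.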 Calls of active or inactive are those of the source. Cut-off read from the data, not from the text of the source: active = GI50 up to about 1.1 µM and inactive = higher.

Key:
Assay in all cases: NCI tumour cell line growth inhibition, 48 h
UACC-62 = system: UACC-62
MDA-MB-435 = system: MDA-MB-435
MDA-MB-231 = system: MDA-MB-231
KM12 = system: KM12
HCC 2998 = system: HCC 2998
SN12C = system: SN12C
SF-295 = system: SF-295
K562 = system: K562
SF-539 = system: SF-539
SR = system: SR
HT-29 = system: HT-29
EKVX = system: EKVX
NCI-H23 = system: NCI-H23
A549 = system: A549
HOP-62 = system: HOP-62
MCF7 = system: MCF7
PC-3 = system: PC-3
NCI-H460 = system: NCI-H460
OVCAR-3 = system: OVCAR-3
LXFL 529 = system: LXFL 529

With `O=C(Nc1cnc(O)nc1O)Oc1ccccc1` the GI50 (UACC-62) was > 100 µM (inactive), the GI50 (MDA-MB-435) was > 100 µM (inactive) and the GI50 (MDA-MB-231) was > 100 µM (inactive). The GI50 (KM12) was > 100 µM (inactive), the GI50 (HCC 2998) was > 100 µM (inactive) and the GI50 (SN12C) was > 100 µM (inactive). For the same molecule, the GI50 (SF-295) was > 100 µM (inactive), the GI50 (K562) was > 100 µM (inactive) and the GI50 (SF-539) was > 100 µM (inactive). The GI50 (SR) was > 100 µM (inactive), the GI50 (HT-29) was > 100 µM (inactive) and the GI50 (EKVX) was > 100 µM (inactive). For the same molecule, the GI50 (NCI-H23) was > 100 µM (inactive), the GI50 (A549) was > 100 µM (inactive) and the GI50 (HOP-62) was > 100 µM (inactive). The GI50 (MCF7) was > 100 µM (inactive), the GI50 (PC-3) was > 100 µM (inactive) and the GI50 (NCI-H460) was > 100 µM (inactive). The GI50 (OVCAR-3) was > 100 µM (inactive).
For `O=C(O)[C@@H](NS(=O)(=O)c1ccc2ccccc2c1)c1ccccc1`, the GI50 (UACC-62) was > 100 µM (inactive), the GI50 (HCC 2998) was > 100 µM (inactive) and the GI50 (SN12C) was > 100 µM (inactive). For the same molecule, the GI50 (LXFL 529) was > 100 µM (inactive), the GI50 (K562) was > 100 µM (inactive) and the GI50 (SF-539) was > 100 µM (inactive). The GI50 (HT-29) was > 100 µM (inactive), the GI50 (NCI-H23) was > 100 µM (inactive) and the GI50 (NCI-H460) was > 100 µM (inactive).
With `CN(C)C(=N)/N=C(\N)Nc1cccc(Cl)c1` the GI50 (UACC-62) was 89.1 µM (inactive), the GI50 (MDA-MB-435) was > 100 µM (inactive) and the GI50 (MDA-MB-231) was 46.7 µM (inactive). The GI50 (KM12) was > 100 µM (inactive), the GI50 (HCC 2998) was > 100 µM (inactive) and the GI50 (SN12C) was 98.6 µM (inactive). The GI50 (SF-295) was 84.1 µM (inactive), the GI50 (K562) was > 100 µM (inactive) and the GI50 (SF-539) was 47.8 µM (inactive). The GI50 (SR) was 53.2 µM (inactive), the GI50 (HT-29) was > 100 µM (inactive) and the GI50 (EKVX) was > 100 µM (inactive). For the same molecule, the GI50 (NCI-H23) was > 100 µM (inactive), the GI50 (A549) was > 100 µM (inactive) and the GI50 (HOP-62) was > 100 µM (inactive). The GI50 (MCF7) was 90.8 µM (inactive), the GI50 (PC-3) was 41.8 µM (inactive) and the GI50 (NCI-H460) was 91.6 µM (inactive). The GI50 (OVCAR-3) was > 100 µM (inactive).
`O=C1C=CC(=O)c2c1ccc1c3ccccc3n(-c3ccccc3[N+](=O)[O-])c21` was tested, and the GI50 (UACC-62) was 4.91 µM (inactive), the GI50 (MDA-MB-435) was 2.26 µM (inactive) and the GI50 (MDA-MB-231) was 2.76 µM (inactive). The GI50 (KM12) was 8.97 µM (inactive), the GI50 (HCC 2998) was 3.42 µM (inactive) and the GI50 (SN12C) was 4.01 µM (inactive). For the same molecule, the GI50 (SF-295) was 22.6 µM (inactive), the GI50 (K562) was 0.828 µM (active) and the GI50 (SF-539) was 22.5 µM (inactive). The GI50 (SR) was 0.444 µM (active), the GI50 (HT-29) was 5.2 µM (inactive) and the GI50 (EKVX) was 8.22 µM (inactive). For the same molecule, the GI50 (NCI-H23) was 4.55 µM (inactive), the GI50 (A549) was 21.7 µM (inactive) and the GI50 (HOP-62) was 18.6 µM (inactive). The GI50 (MCF7) was 3.3 µM (inactive), the GI50 (PC-3) was 3.65 µM (inactive) and the GI50 (NCI-H460) was 9.82 µM (inactive). For the same molecule, the GI50 (OVCAR-3) was 2.44 µM (inactive).
For `CCN(CC)CCN(/C(=N/c1ccccc1)N1CCOCC1)c1ccccc1`, the GI50 (UACC-62) was > 100 µM (inactive), the GI50 (MDA-MB-435) was 28.8 µM (inactive) and the GI50 (MDA-MB-231) was > 100 µM (inactive). The GI50 (KM12) was > 100 µM (inactive), the GI50 (HCC 2998) was > 100 µM (inactive) and the GI50 (SN12C) was > 100 µM (inactive). The GI50 (SF-295) was > 100 µM (inactive), the GI50 (K562) was > 100 µM (inactive) and the GI50 (SF-539) was > 100 µM (inactive). The GI50 (SR) was 50.6 µM (inactive), the GI50 (HT-29) was 42.1 µM (inactive) and the GI50 (EKVX) was > 100 µM (inactive). For the same molecule, the GI50 (NCI-H23) was 70 µM (inactive), the GI50 (A549) was > 100 µM (inactive) and the GI50 (HOP-62) was 74.6 µM (inactive). The GI50 (MCF7) was 89.3 µM (inactive), the GI50 (PC-3) was > 100 µM (inactive) and the GI50 (NCI-H460) was > 100 µM (inactive). For the same molecule, the GI50 (OVCAR-3) was > 100 µM (inactive).
With `O=C1/C(=C/c2ccc3c(c2)OCO3)SC2C=Nc3ccccc3N12` (stereo not given) the GI50 (UACC-62) was 54.8 µM (inactive), the GI50 (KM12) was > 100 µM (inactive) and the GI50 (HCC 2998) was > 100 µM (inactive). For the same molecule, the GI50 (SN12C) was > 100 µM (inactive), the GI50 (LXFL 529) was > 100 µM (inactive) and the GI50 (SF-295) was > 100 µM (inactive). The GI50 (SF-539) was 86.1 µM (inactive), the GI50 (HT-29) was > 100 µM (inactive) and the GI50 (EKVX) was > 100 µM (inactive). For the same molecule, the GI50 (NCI-H23) was > 100 µM (inactive), the GI50 (A549) was > 100 µM (inactive) and the GI50 (HOP-62) was > 100 µM (inactive). The GI50 (NCI-H460) was > 100 µM (inactive) and the GI50 (OVCAR-3) was > 100 µM (inactive).
For `C=CCNC(=O)NCCCC(NC(C)=O)C(=O)NCc1ccccc1` (stereo not given), the GI50 (UACC-62) was > 100 µM (inactive), the GI50 (KM12) was > 100 µM (inactive) and the GI50 (SN12C) was > 100 µM (inactive). The GI50 (LXFL 529) was > 100 µM (inactive), the GI50 (SF-295) was > 100 µM (inactive) and the GI50 (K562) was > 100 µM (inactive). The GI50 (SF-539) was > 100 µM (inactive), the GI50 (HT-29) was > 100 µM (inactive) and the GI50 (EKVX) was > 100 µM (inactive). For the same molecule, the GI50 (NCI-H23) was > 100 µM (inactive), the GI50 (A549) was > 100 µM (inactive) and the GI50 (HOP-62) was > 100 µM (inactive). For the same molecule, the GI50 (NCI-H460) was > 100 µM (inactive) and the GI50 (OVCAR-3) was > 100 µM (inactive).
With `CCc1cccc(C(C)(C)C)c1NC(=S)N/C=C(/C#N)C(N)=O` the GI50 (UACC-62) was > 100 µM (inactive), the GI50 (MDA-MB-435) was > 100 µM (inactive) and the GI50 (MDA-MB-231) was > 100 µM (inactive). For the same molecule, the GI50 (KM12) was > 100 µM (inactive), the GI50 (HCC 2998) was > 100 µM (inactive) and the GI50 (SN12C) was > 100 µM (inactive). The GI50 (SF-295) was > 100 µM (inactive), the GI50 (K562) was > 100 µM (inactive) and the GI50 (SF-539) was > 100 µM (inactive). For the same molecule, the GI50 (SR) was > 10 µM (inactive), the GI50 (HT-29) was > 100 µM (inactive) and the GI50 (EKVX) was > 100 µM (inactive). For the same molecule, the GI50 (NCI-H23) was > 100 µM (inactive), the GI50 (A549) was > 100 µM (inactive) and the GI50 (HOP-62) was > 100 µM (inactive). For the same molecule, the GI50 (MCF7) was > 100 µM (inactive), the GI50 (PC-3) was > 100 µM (inactive) and the GI50 (NCI-H460) was > 100 µM (inactive). The GI50 (OVCAR-3) was 92.7 µM (inactive).
`Cc1ccc(S(=O)(=O)c2c(N)n(CCN(C)C)c3nc4ccccc4nc23)cc1` was tested, and the GI50 (KM12) was 45.1 µM (inactive), the GI50 (HCC 2998) was > 100 µM (inactive) and the GI50 (SN12C) was > 100 µM (inactive). For the same molecule, the GI50 (LXFL 529) was > 100 µM (inactive), the GI50 (SF-295) was > 100 µM (inactive) and the GI50 (K562) was > 100 µM (inactive). For the same molecule, the GI50 (SF-539) was > 100 µM (inactive), the GI50 (HT-29) was > 100 µM (inactive) and the GI50 (EKVX) was > 100 µM (inactive). For the same molecule, the GI50 (NCI-H23) was > 100 µM (inactive), the GI50 (A549) was > 100 µM (inactive) and the GI50 (NCI-H460) was > 100 µM (inactive). The GI50 (OVCAR-3) was > 100 µM (inactive).
